Measured values as given in PubChem BioAssay (NCI).
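Abbreviation: GI50, concentration required for 50% inhibition of growth. At the TGI there is no net growth.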

Assays:
Assay in all cases: NCI anticancer screen, dose series, 384-well format
KM12 colon = system: KM12 colon
MOLT-4 leukemia = system: MOLT-4 leukemia
M14 melanoma = system: M14 melanoma
MALME-3M melanoma = system: MALME-3M melanoma
NCI-H322M lung = system: NCI-H322M lung
SNB-75 CNS = system: SNB-75 CNS
RXF 393 renal = system: RXF 393 renal
HCT-15 colon = system: HCT-15 colon
DU-145 prostate = system: DU-145 prostate
SF-539 CNS = system: SF-539 CNS
UACC-62 melanoma = system: UACC-62 melanoma
ACHN renal = system: ACHN renal
OVCAR-5 ovarian = system: OVCAR-5 ovarian
OVCAR-3 ovarian = system: OVCAR-3 ovarian
CCRF-CEM leukemia = system: CCRF-CEM leukemia
786-0 renal = system: 786-0 renal
SF-268 CNS = system: SF-268 CNS
K-562 leukemia = system: K-562 leukemia
NCI-H522 lung = system: NCI-H522 lung
SN12C renal = system: SN12C renal
NCI-H226 lung = system: NCI-H226 lung
EKVX NSCLC = system: EKVX NSCLC
SK-MEL-2 melanoma = system: SK-MEL-2 melanoma
A498 renal = system: A498 renal
NCI-H23 lung = system: NCI-H23 lung
BT-549 breast = system: BT-549 breast
MDA-MB-435 melanoma = system: MDA-MB-435 melanoma
SF-295 CNS = system: SF-295 CNS
SNB-19 CNS = system: SNB-19 CNS
HCC-2998 colon = system: HCC-2998 colon
COLO 205 colon = system: COLO 205 colon
UO-31 renal = system: UO-31 renal
HL-60(TB) leukemia = system: HL-60(TB) leukemia
U251 glioblastoma = system: U251 glioblastoma
HT29 colon = system: HT29 colon
MCF7 breast = system: MCF7 breast
CAKI-1 renal = system: CAKI-1 renal
UACC-257 melanoma = system: UACC-257 melanoma
HOP-62 NSCLC = system: HOP-62 NSCLC
A549 NSCLC = system: A549 NSCLC
IGROV1 ovarian = system: IGROV1 ovarian
T-47D breast = system: T-47D breast
NCI-H460 NSCLC = system: NCI-H460 NSCLC
SR leukemia = system: SR leukemia
RPMI-8226 leukemia = system: RPMI-8226 leukemia
MDA-MB-231 breast = system: MDA-MB-231 breast
PC-3 prostate = system: PC-3 prostate
SK-MEL-5 melanoma = system: SK-MEL-5 melanoma
MDA-MB-468 breast = system: MDA-MB-468 breast
HCT-116 colon = system: HCT-116 colon
SK-MEL-28 melanoma = system: SK-MEL-28 melanoma
LOX IMVI melanoma = system: LOX IMVI melanoma
SK-OV-3 ovarian = system: SK-OV-3 ovarian
HOP-92 NSCLC = system: HOP-92 NSCLC
TK-10 renal = system: TK-10 renal
OVCAR-8 ovarian = system: OVCAR-8 ovarian
OVCAR-4 ovarian = system: OVCAR-4 ovarian
SW-620 colon = system: SW-620 colon
HS 578T breast = system: HS 578T breast
NCI/ADR-RES ovarian = system: NCI/ADR-RES ovarian

Cn1cc(-c2ccc(-c3ccc(C4=NC5(CC5)C(=O)N4C[C@@H]4CCN(C(=O)C5CC5)C4)cc3)cc2)cn1
GI50 (KM12 colon): 6.95 µM | TGI (KM12 colon): > 100 µM | GI50 (MOLT-4 leukemia): 11 µM | TGI (MOLT-4 leukemia): 23.2 µM | GI50 (M14 melanoma): 24.7 µM | TGI (M14 melanoma): > 79.5 µM | GI50 (MALME-3M melanoma): 23 µM | TGI (MALME-3M melanoma): 65.1 µM | GI50 (NCI-H322M lung): 20 µM | TGI (NCI-H322M lung): 75.5 µM | GI50 (SNB-75 CNS): 21.5 µM | TGI (SNB-75 CNS): > 87.7 µM | GI50 (RXF 393 renal): 14.4 µM | TGI (RXF 393 renal): 40.7 µM | GI50 (HCT-15 colon): 5.68 µM | TGI (HCT-15 colon): > 62.9 µM | GI50 (DU-145 prostate): 14.6 µM | TGI (DU-145 prostate): 59.6 µM | GI50 (SF-539 CNS): 13.7 µM | TGI (SF-539 CNS): > 56.4 µM | GI50 (UACC-62 melanoma): 8.91 µM | TGI (UACC-62 melanoma): 22.5 µM | GI50 (ACHN renal): 18.7 µM | TGI (ACHN renal): > 90.1 µM | GI50 (OVCAR-5 ovarian): 23.4 µM | TGI (OVCAR-5 ovarian): > 100 µM | GI50 (OVCAR-3 ovarian): 13.5 µM | TGI (OVCAR-3 ovarian): 31.2 µM | GI50 (CCRF-CEM leukemia): 11.7 µM | TGI (CCRF-CEM leukemia): 24.3 µM | GI50 ([…]-0 renal): 12.8 µM | TGI (786-0 renal): 31.8 µM | GI50 (SF-268 CNS): 18.4 µM | TGI (SF-268 CNS): > 88.4 µM | GI50 (K-562 leukemia): 6.43 µM | TGI (K-562 leukemia): > 95.4 µM | GI50 (NCI-H522 lung): 12.6 µM | TGI (NCI-H522 lung): 29.6 µM | GI50 (SN12C renal): 17.1 µM | TGI (SN12C renal): 83.8 µM | GI50 (NCI-H226 lung): 19 µM | TGI (NCI-H226 lung): 97.2 µM | GI50 (EKVX NSCLC): 33.3 µM | TGI (EKVX NSCLC): 98.2 µM | GI50 (SK-MEL-2 melanoma): 21.9 µM | TGI (SK-MEL-2 melanoma): 41.8 µM | GI50 (A498 renal): 17.6 µM | TGI (A498 renal): > 56.1 µM | GI50 (NCI-H23 lung): 14.9 µM | TGI (NCI-H23 lung): 37.7 µM | GI50 (BT-549 breast): 0.827 µM | TGI (BT-549 breast): 30.1 µM | GI50 (MDA-MB-435 melanoma): 16.1 µM | TGI (MDA-MB-435 melanoma): 41.4 µM | GI50 (SF-295 CNS): 14.3 µM | TGI (SF-295 CNS): > 81.6 µM | GI50 (SNB-19 CNS): 26.4 µM | TGI (SNB-19 CNS): > 90.1 µM | GI50 (HCC-2998 colon): 23.7 µM | TGI (HCC-2998 colon): > 79.9 µM | GI50 (COLO 205 colon): 25.7 µM | TGI (COLO 205 colon): > 100 µM | GI50 (UO-31 renal): 1.06 µM | TGI (UO-31 renal): 2.43 µM | GI50 (HL-60(TB) leukemia): 0.0689 µM | TGI (HL-60(TB) leukemia): 16.3 µM | GI50 (U251 glioblastoma): 10.2 µM | TGI (U251 glioblastoma): 38.1 µM | GI50 (HT29 colon): 28.1 µM | TGI (HT29 colon): > 100 µM | GI50 (MCF7 breast): 3.21 µM | TGI (MCF7 breast): > 100 µM | GI50 (CAKI-1 renal): 1.99 µM | GI50 (UACC-257 melanoma): 38.4 µM | TGI (UACC-257 melanoma): > 74.7 µM | GI50 (HOP-62 NSCLC): 8.82 µM | TGI (HOP-62 NSCLC): 26.4 µM | GI50 (A549 NSCLC): 20.2 µM | TGI (A549 NSCLC): > 100 µM | GI50 (IGROV1 ovarian): 25.6 µM | TGI (IGROV1 ovarian): > 100 µM | GI50 (T-47D breast): 11.9 µM | TGI (T-47D breast): 43.9 µM | GI50 (NCI-H460 NSCLC): 1.21 µM | TGI (NCI-H460 NSCLC): 2.97 µM | GI50 (SR leukemia): 0.0145 µM | TGI (SR leukemia): 0.0828 µM | TGI (RPMI-8226 leukemia): 9.91 µM | GI50 (MDA-MB-231 breast): 12.3 µM | TGI (MDA-MB-231 breast): 56.1 µM | GI50 (PC-3 prostate): 20.4 µM | TGI (PC-3 prostate): 49 µM | GI50 (SK-MEL-5 melanoma): 15.5 µM | TGI (SK-MEL-5 melanoma): 37 µM | GI50 (MDA-MB-468 breast): 15.8 µM | TGI (MDA-MB-468 breast): 38.4 µM | GI50 (HCT-116 colon): 4.95 µM | TGI (HCT-116 colon): 27.6 µM | GI50 (SK-MEL-28 melanoma): 27.8 µM | TGI (SK-MEL-28 melanoma): > 74.8 µM | GI50 (LOX IMVI melanoma): 2.48 µM | TGI (LOX IMVI melanoma): 14 µM | GI50 (SK-OV-3 ovarian): 30 µM | TGI (SK-OV-3 ovarian): > 89.9 µM | GI50 (HOP-92 NSCLC): 21.2 µM | TGI (HOP-92 NSCLC): 59.1 µM | GI50 (TK-10 renal): 27.5 µM | TGI (TK-10 renal): > 100 µM | GI50 (OVCAR-8 ovarian): 13.4 µM | TGI (OVCAR-8 ovarian): 41.6 µM | GI50 (OVCAR-4 ovarian): 8.64 µM | TGI (OVCAR-4 ovarian): 59.1 µM | GI50 (SW-620 colon): 19.4 µM | TGI (SW-620 colon): > 67.9 µM | GI50 (HS 578T breast): 10.5 µM | TGI (HS 578T breast): 39.1 µM | GI50 (NCI/ADR-RES ovarian): 14.2 µM | TGI (NCI/ADR-RES ovarian): 36.2 µM
